Assay [1] relates to […] (SEQ ID NO: 3) amyloid peptide. Put plainly: Coordination at higher peptide concentration (amyloid gel, 5 mg/mL), inhibitor capturing. Particulars: FYTGAIIGNYF gel 5 mg/mL, 1000 μM inhibitor solution added, by MS. The format is binding. The protocol: Amyloid Fibrils Preparation and Characterization. For the formation of fibrils, the amyloid peptides were dispersed in DI water at a 10 mg/ml, vortexed, heated at 60° C. for 30 sec, and sonicated for 15 mins (this cycle was repeated 10 times overall), and finally left overnight at room temperature to form a hydrogel. […] That was confirmed with Field Emission Scanning Electron Microscopy (FESEM) and Congo Red staining (CR).
Coordination Studies at Higher Peptide Concentrations and Inhibitor Capturing. […] (SEQ ID NO: 4) or […] (SEQ ID NO: 3) amyloid peptide gels (10 mg/mL, 1 mL volume) and was left to physically complex under stirring overnight (the final peptide concentration was diluted to 5 mg/mL). A control using 1 mL of 0.1 M PBS (no inhibitor) was also prepared. The complexed amyloid/inhibitor materials were then transferred to 5 mL conical Eppendorf tubes, and centrifuged for 15 mins at 4,400 rpm (14° C.). The supernatant was decanted, and 2 mL of DI water were subsequently added to wash the pellet (followed by vortexing until obtaining a homogenous dispersion) in order to remove any unbound inhibitor. The samples were then centrifuged again at the same conditions so as to pelletize the amyloid materials, and the supernatant was decanted. Another 2 mL of DI water were then added into the pellet, the mixture was vortexed, and the physically bound inhibitor into the amyloid peptides was quantified by UV-Vis between 200-600 nm and MS. This step is denoted as wash 1 in our study. Two additional pellet purification cycles were realized with replacement of the decanted volume each time with 2 mL of fresh DI water (denoted as wash 2 and wash 3 respectively). The inhibitor-containing amyloid peptides were normalized at 400 nm over the respective no inhibitor-containing ones at the specific washing step.

For another assay, the target named is AChE (Homo sapiens, UniProt P22303). Particulars: in vitro, Ellman's assay, among marketed AD drugs; cited from earlier work. In general terms: DTNB colorimetry detects thiols as they appear.
Assay [2] concerns […] (SEQ ID NO: 4) amyloid peptide. The assay is classed as binding. The note with it: YFTGAIIGNFY gel 5 mg/mL, 1000 μM inhibitor solution added, by MS. Here is the method:
Amyloid Fibrils Preparation and Characterization. For the formation of fibrils, the amyloid peptides were dispersed in DI water at a 10 mg/ml, vortexed, heated at 60° C. for 30 sec, and sonicated for 15 mins (this cycle was repeated 10 times overall), and finally left overnight at room temperature to form a hydrogel.
A control using 1 mL of 0.1 M PBS (no inhibitor) was also prepared. The complexed amyloid/inhibitor materials were then transferred to 5 mL conical Eppendorf tubes, and centrifuged for 15 mins at 4,400 rpm (14° C.). The supernatant was decanted, and 2 mL of DI water were subsequently added to wash the pellet (followed by vortexing until obtaining a homogenous dispersion) in order to remove any unbound inhibitor. The samples were then centrifuged again at the same conditions so as to pelletize the amyloid materials, and the supernatant was decanted. Another 2 mL of DI water were then added into the pellet, the mixture was vortexed, and the physically bound inhibitor into the amyloid peptides was quantified by UV-Vis between 200-600 nm and MS. This step is denoted as wash 1 in our study. Two additional pellet purification cycles were realized with replacement of the decanted volume each time with 2 mL of fresh DI water (denoted as wash 2 and wash 3 respectively). The inhibitor-containing amyloid peptides were normalized at 400 nm over the respective no inhibitor-containing ones at the specific washing step.

Assay [3] has the same test system. The format is binding. Particulars: YFTGAIIGNFY 1 mg/mL, 150 μM inhibitor loaded, by MS. The protocol: Amyloid Peptide/Inhibitor Coordination Studies in Dilute Solutions. […]. As a negative control, 1 mL of 0.1 M PBS buffer was added. The mixtures were vortexed and sonicated to homogenously disperse any solid aggregates and stirred overnight to allow for coordination. The mixtures were transferred to 2 mL Eppendorf tubes and centrifuged for 15 mins at 4,400 rpm (14° C.) to pelletize the amyloid bound-inhibitors, and the supernatant was decanted. Subsequently, 1 mL of DI water was added to wash the pellet (followed by vortexing until obtaining a homogenous dispersion) in order to remove any unbound inhibitor. The samples were then centrifuged again at the same conditions so as to pelletize the amyloid materials, and the supernatant was decanted. Another 1 mL of DI water was then added into the pellet, the mixture was vortexed, and the physically bound inhibitor into the dilute amyloid peptide dispersions was quantified by UV-Vis between 200-600 nm and MS. This step is denoted as wash 1 in our study. Two additional pellet purification cycles were realized with replacement of the decanted volume each time with 1 mL of fresh DI water (denoted as wash 2 and wash 3 respectively). The inhibitor-containing peptides amyloids were normalized at 400 nm over the respective no inhibitor-containing amyloid peptides at the specific washing step, and the measured inhibitor peak values (at 315 nm and 323 nm) were subtracted from that of the amyloid peptide carriers at the same wavelength and concentration. The amount of inhibitors coordinated with the amyloid peptide carriers was quantified based on a calibration curve by both UV-Vis and MS.
. The peak at 315 nm was selected for inhibitor quantification due the absence of peaks at that range for both peptides. […]. However, the peak at 315 nm was selected for inhibitor quantification, and the following equation was used for both peptides: A315=A315 ([…]/Donepezil)−A315 ([…])
[…]. The peak at 323 nm was used for inhibitor quantification due the absence of peaks at that range for both peptides. […].

For assay [4], the system named is […] (SEQ ID NO: 3) amyloid peptide. Kind of assay: Amyloid peptide/inhibitor coordination in dilute solution (1 mg/mL), drug captured after pellet washings. The assay is classed as binding. The note with it: FYTGAIIGNYF 1 mg/mL, 150 μM inhibitor loaded, by MS. Here is the method: Amyloid Peptide/Inhibitor Coordination Studies in Dilute Solutions. […] Subsequently, 1 mL of DI water was added to wash the pellet (followed by vortexing until obtaining a homogenous dispersion) in order to remove any unbound inhibitor. The samples were then centrifuged again at the same conditions so as to pelletize the amyloid materials, and the supernatant was decanted. Another 1 mL of DI water was then added into the pellet, the mixture was vortexed, and the physically bound inhibitor into the dilute amyloid peptide dispersions was quantified by UV-Vis between 200-600 nm and MS. This step is denoted as wash 1 in our study. Two additional pellet purification cycles were realized with replacement of the decanted volume each time with 1 mL of fresh DI water (denoted as wash 2 and wash 3 respectively). The inhibitor-containing peptides amyloids were normalized at 400 nm over the respective no inhibitor-containing amyloid peptides at the specific washing step, and the measured inhibitor peak values (at 315 nm and 323 nm) were subtracted from that of the amyloid peptide carriers at the same wavelength and concentration. The amount of inhibitors coordinated with the amyloid peptide carriers was quantified based on a calibration curve by both UV-Vis and MS.
The peak at 315 nm was selected for inhibitor quantification due the absence of peaks at that range for both peptides. […] However, the peak at 315 nm was selected for inhibitor quantification, and the following equation was used for both peptides: A315=A315 ([…]/Donepezil)−A315 ([…])
The peak at 323 nm was used for inhibitor quantification due the absence of peaks at that range for both peptides.

Where two headings read alike, the source gives them in different places.

Consider one compound from patent US12178878B2, “Amyloid peptide scaffolds coordinate with Alzheimer's disease drugs” (The University of Massachusetts, priority 2018, dated 2024).

AChE, sequence (P22303 32-614): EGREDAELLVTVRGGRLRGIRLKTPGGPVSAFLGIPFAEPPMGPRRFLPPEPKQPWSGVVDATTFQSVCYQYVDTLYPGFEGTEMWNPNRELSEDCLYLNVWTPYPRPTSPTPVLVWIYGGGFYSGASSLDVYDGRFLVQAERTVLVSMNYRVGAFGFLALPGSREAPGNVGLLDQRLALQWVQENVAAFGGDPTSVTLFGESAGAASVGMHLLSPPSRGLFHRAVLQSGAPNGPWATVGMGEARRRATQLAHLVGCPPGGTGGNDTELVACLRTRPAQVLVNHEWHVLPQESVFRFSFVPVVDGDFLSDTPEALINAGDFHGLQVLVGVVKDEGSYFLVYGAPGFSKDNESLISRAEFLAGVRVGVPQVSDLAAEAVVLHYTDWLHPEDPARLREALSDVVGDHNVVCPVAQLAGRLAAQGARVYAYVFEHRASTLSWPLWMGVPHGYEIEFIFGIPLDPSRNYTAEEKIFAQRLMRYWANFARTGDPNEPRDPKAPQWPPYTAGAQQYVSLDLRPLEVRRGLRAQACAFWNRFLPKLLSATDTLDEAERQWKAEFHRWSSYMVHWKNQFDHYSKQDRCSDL

In the case of `CC12CC3CC(C)(C1)CC(N)(C3)C2` [memantine], the “AD compound captured, Wash 1” value in assay [1] (1st pellet wash) came out at 32 ± 2 µM; in assay [2] (1st pellet wash), 21 ± 1 µM; in assay [3] (1st pellet wash) it was 8 ± 1 µM; in assay [4] (1st pellet wash) it was 18 ± 3 µM. In addition, the “AD compound captured, Wash 2” value was determined as 16 ± 2 µM in assay [1] (2nd pellet wash); 10 ± 1 µM in assay [2] (2nd pellet wash, room temperature); 3 ± 1 µM in assay [3] (2nd pellet wash); 5 ± 2 µM in assay [4] (2nd pellet wash). In addition, the “AD compound captured, Wash 3” value in assay [1] (3rd pellet wash) worked out at 12 ± 3 µM; in assay [2] (3rd pellet wash, room temperature), 8 ± 1 µM; in assay [3] (3rd pellet wash), 2 ± 1 µM; in assay [4] (3rd pellet wash) it was 4 ± 2 µM. For the same compound, the “inhibition towards AChE” value at AChE is given as “negligible inhibition”.
